{"source": "patent US20070093966A1", "about": "“Drug candidate selection by hydrogen exchange characterization of ligand-induced receptor conformation” (ExSAR CORPORATION, priority 2004, published 2007)", "origin": "cited, not measured here", "system": "endogenous gene CAP in 3T3-L1 adipocytes", "details": "Camp et al."}
{"smiles": "Cc1c(C)c2c(c(C)c1O)CCC(C)(COc1ccc(CC3SC(=O)NC3=O)cc1)O2", "note": "(stereo not shown) [troglitazone]", "values": [{"measurement": "agonist profile, induction of the endogenous gene CAP", "value": "full agonist"}]}
